Test results: the CombiSolv-Exp solvation set (Vermeire and Green 2021)

Assay: solvent given as SMILES
[1] = in CCCCCCCCC=CCCCCCCCC(=O)OCC(COC(=O)CCCCCCCC=CCCCCCCCC)OC(=O)CCCCCCCC=CCCCCCCCC

CCCC(C)CO (stereo unspecified)
solvation free energy, 298 K (in CCCCCCCC): -4.89 kcal/mol
solvation free energy, 298 K (in CCCCCCCCCC): -4.82 kcal/mol

O=c1cc(Cl)[nH]c(=O)[nH]1
solvation free energy, 298 K (in O): -15.8 kcal/mol

C#CCCCC
solvation free energy, 298 K (in C1CCC2CCCCC2C1): -3.68 kcal/mol
solvation free energy, 298 K (in C1CCC(C2CCCCC2)CC1): -3.65 kcal/mol
solvation free energy, 298 K (in CN1CCCC1=O): -4.11 kcal/mol
solvation free energy, 298 K (in CN(C)C=O): -3.94 kcal/mol
solvation free energy, 298 K (in CS(C)=O): -3.55 kcal/mol
solvation free energy, 298 K (in N#CCCCCC#N): -3.32 kcal/mol
solvation free energy, 298 K (in NCCO): -2.4 kcal/mol
solvation free energy, 298 K (in O): 0.29 kcal/mol
solvation free energy, 298 K (in O=Cc1ccco1): -3.57 kcal/mol
solvation free energy, 298 K (in OCc1ccco1): -3.31 kcal/mol
solvation free energy, 298 K (in c1ccc2c(c1)CCCC2): -3.99 kcal/mol
solvation free energy, 298 K (in c1ccc(C2CCCCC2)cc1): -3.88 kcal/mol

CCCOC
solvation free energy, 298 K (in O): -1.66 kcal/mol

CCN
solvation free energy, 298 K (in CCCCCC): -2.29 kcal/mol
solvation free energy, 298 K (in CCCCCCC): -2.09 kcal/mol
solvation free energy, 298 K (in CCCCCCCC): -2.05 kcal/mol
solvation free energy, 298 K (in CCCCCCCCCC): -1.93 kcal/mol
solvation free energy, 298 K (in CCCCCCCCCCCCCCCC): -2.22 kcal/mol
solvation free energy, 298 K (in O): -4.5 kcal/mol

CCC(=O)CC(=O)CC
solvation free energy, 298 K (in O): -4.71 kcal/mol

O=C(O)Cc1cccc(Cl)c1
solvation free energy, 298 K (in O): -8.39 kcal/mol

Clc1ccc(Cl)cc1
solvation free energy, 298 K (in CCCCCC): -6.06 kcal/mol
solvation free energy, 298 K (in CCCCCCC): -5.81 kcal/mol
solvation free energy, 298 K [1]: -6.7 kcal/mol
solvation free energy, 298 K (in O): -1.01 kcal/mol

CNC(=O)Oc1cccc2ccccc12
solvation free energy, 298 K [1]: -12.6 kcal/mol

C=CC1CC=CCC1 (stereo unspecified)
solvation free energy, 298 K (in CCCCCCCCCCCCCCCC): -4.94 kcal/mol
solvation free energy, 298 K (in COCCO): -4.42 kcal/mol
solvation free energy, 298 K (in CS(C)=O): -3.97 kcal/mol
solvation free energy, 298 K (in O): 0.36 kcal/mol

Nc1ccc(O)c2c1C(=O)c1ccccc1C2=O
solvation free energy, 298 K (in O): -9.53 kcal/mol

CCOC(=O)CC
solvation free energy, 298 K (in CCCCCCCC): -4.11 kcal/mol
solvation free energy, 298 K (in CCCCCCCCCCCCCCCC): -3.91 kcal/mol
solvation free energy, 298 K (in CCCCCCCCO): -4.3 kcal/mol
solvation free energy, 298 K (in CCOCCO): -4.58 kcal/mol
solvation free energy, 298 K (in CN1CCCC1=O): -4.49 kcal/mol
solvation free energy, 298 K (in O): -2.7 kcal/mol
solvation free energy, 298 K (in O=CN1CCOCC1): -4.3 kcal/mol
solvation free energy, 298 K (in [2H]O[2H]): -2.8 kcal/mol

O=Cc1ccco1
solvation free energy, 298 K (in CCCCCCCC): -4.27 kcal/mol
solvation free energy, 298 K (in CCCCCCCCCC): -4.51 kcal/mol
solvation free energy, 298 K (in CCOC(C)=O): -6.3 kcal/mol
solvation free energy, 298 K (in O): -5.28 kcal/mol

Cc1ccc2c(C)ccc(C(C)C)c2c1
solvation free energy, 298 K (in O): -2.5 kcal/mol

C=C1C2CCC(C2)C1(C)CCC=C(C)C (stereo unspecified)
solvation free energy, 298 K (in O): 0.35 kcal/mol

CN1CCOCC1
solvation free energy, 298 K (in O): -6.32 kcal/mol

CCCC(C)=O
solvation free energy, 298 K (in CC(C)CC(C)(C)C): -4.14 kcal/mol
solvation free energy, 298 K (in CC(C)CCCC(C)CCCC(C)CCCCC(C)CCCC(C)CCCC(C)C): -3.72 kcal/mol
solvation free energy, 298 K (in CCCCCCC): -4.07 kcal/mol
solvation free energy, 298 K (in CCCCCCCC): -3.87 kcal/mol
solvation free energy, 298 K (in CCCCCCCCCC): -3.93 kcal/mol
solvation free energy, 298 K (in CCCCCCCCCCCCCCCC): -3.74 kcal/mol
solvation free energy, 298 K (in CCCCCCCCO): -4.35 kcal/mol
solvation free energy, 298 K (in CCN1CCCC1=O): -4.86 kcal/mol
solvation free energy, 298 K (in CCN(CC)C(C)=O): -4.91 kcal/mol
solvation free energy, 298 K (in CCNC(C)=O): -4.61 kcal/mol
solvation free energy, 298 K (in CCNC=O): -4.69 kcal/mol
solvation free energy, 298 K (in CN1CCCC1=O): -4.73 kcal/mol
solvation free energy, 298 K (in CN1CCCCC1=O): -4.83 kcal/mol
solvation free energy, 298 K (in CNC=O): -4.69 kcal/mol
solvation free energy, 298 K (in CO): -4.88 kcal/mol
solvation free energy, 298 K (in NC=O): -4.12 kcal/mol
solvation free energy, 298 K (in O): -3.46 kcal/mol
solvation free energy, 298 K (in O=CN1CCOCC1): -4.52 kcal/mol
solvation free energy, 298 K (in [2H]O[2H]): -3.38 kcal/mol

CN(C)C(=O)c1ccccc1
solvation free energy, 298 K (in O): -9.29 kcal/mol

Clc1ccc(Cl)c(-c2cc(Cl)c(Cl)cc2Cl)c1
solvation free energy, 298 K (in CCCCCCCCO): -12 kcal/mol
solvation free energy, 298 K (in O): -2.82 kcal/mol

O=C1CCCC1
solvation free energy, 298 K (in CCCCCCC): -4.53 kcal/mol
solvation free energy, 298 K (in CCCCCCCCCCCCCCCC): -4.22 kcal/mol
solvation free energy, 298 K (in CCCCCCCCO): -5.02 kcal/mol
solvation free energy, 298 K (in CCCCCl): -5.46 kcal/mol
solvation free energy, 298 K (in CCCCOCCCC): -4.82 kcal/mol
solvation free energy, 298 K (in ClC(Cl)(Cl)Cl): -5.54 kcal/mol
solvation free energy, 298 K (in ClCCCl): -6.26 kcal/mol
solvation free energy, 298 K (in O): -4.72 kcal/mol
solvation free energy, 298 K (in [2H]O[2H]): -4.75 kcal/mol

O=Cc1cccc(O)c1
solvation free energy, 298 K (in O): -9.52 kcal/mol
